Source: patent US11987588B2, “Modulators of the beta-3 adrenergic receptor useful for the treatment or prevention of heart failure and disorders related thereto” (Arena Pharmaceuticals, Inc., priority 2017, dated 2024)
pIC50: −log10 of the molar value.

Target: Beta-3 Adrenergic Receptor (Homo sapiens (Human), UniProt P13945)
Test: Homogeneous Time-Resolved Fluorescence (HTRF) cAMP antagonist assay, IC50 determination
Format: cell-based
Settings: CHO-K1 cells stably expressing recombinant receptor, isoproterenol at EC90
Procedure, shortened: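 CHO-K1 cells stably expressing receptor, 1500 cells/well, preincubated briefly with 10-point 5-fold compound series (top final typically 10 or 100 μM) in PBS with 1 mM IBMX, then challenged with isoproterenol at EC90 for 1 h at room temperature. cAMP read by HTRF against on-plate standard curve; IC50 from dose-response.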

Sequence of Beta-3 Adrenergic Receptor (P13945 whole entry, species assumed): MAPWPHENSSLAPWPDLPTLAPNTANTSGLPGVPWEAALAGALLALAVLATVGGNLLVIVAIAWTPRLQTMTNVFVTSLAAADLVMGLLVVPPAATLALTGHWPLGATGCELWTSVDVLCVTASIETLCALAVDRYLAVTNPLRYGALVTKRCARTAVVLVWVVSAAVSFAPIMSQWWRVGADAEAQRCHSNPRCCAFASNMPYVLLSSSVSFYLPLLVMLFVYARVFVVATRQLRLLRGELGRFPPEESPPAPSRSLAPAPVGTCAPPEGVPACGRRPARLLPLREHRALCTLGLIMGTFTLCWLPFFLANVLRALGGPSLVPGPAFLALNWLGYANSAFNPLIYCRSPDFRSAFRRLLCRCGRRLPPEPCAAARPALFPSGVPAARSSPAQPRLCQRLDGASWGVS

SMILES | pIC50
CNS(=O)(=O)c1cccc(OC[C@@H](O)CN[C@H]2COC3(CCN(S(=O)(=O)c4cnc5c(Cl)cn(C)c5c4)CC3)C2)c1 [Compound 527, 3-((S)-3-((R)-8-(3-chloro-1-methyl-1H-pyrrolo[3,2-b]pyridin-6-ylsulfonyl)-1-oxa-8-azaspiro[4.5]decan-3-ylamino)-2-hydroxypropoxy)-N-methylbenzenesulfonamide] | 8.04
CNS(=O)(=O)c1cccc(OC[C@@H](O)CN[C@H]2COC3(CCN(S(=O)(=O)c4cnc5c(C)cccc5c4O)CC3)C2)c1 [Compound 528, 3-((S)-2-hydroxy-3-((R)-8-(4-hydroxy-8-methylquinolin-3-ylsulfonyl)-1-oxa-8-azaspiro[4.5]decan-3-ylamino)propoxy)-N-methylbenzenesulfonamide] | 7.99
CNS(=O)(=O)c1cccc(OC[C@@H](O)CN[C@H]2COC3(CCN(S(=O)(=O)c4c[nH]c5cccnc45)CC3)C2)c1 [Compound 529, 3-((S)-3-((R)-8-(1H-pyrrolo[3,2-b]pyridin-3-ylsulfonyl)-1-oxa-8-azaspiro[4.5]decan-3-ylamino)-2-hydroxypropoxy)-N-methylbenzenesulfonamide] | 6.91
COCCNS(=O)(=O)c1cccc(OC[C@@H](O)CN[C@H]2COC3(CCN(S(=O)(=O)c4cnc5cc[nH]c5c4)CC3)C2)c1 [Compound 530, 3-((S)-3-((R)-8-(1H-pyrrolo[3,2-b]pyridin-6-ylsulfonyl)-1-oxa-8-azaspiro[4.5]decan-3-ylamino)-2-hydroxypropoxy)-N-(2-methoxyethyl)benzenesulfonamide] | 6.67
CCn1cc(S(=O)(=O)N2CCC3(CC2)C[C@@H](NC[C@H](O)COc2cccc(S(=O)(=O)NC)c2)CO3)c(=O)c2ccc(C)cc21 [Compound 531, 3-((S)-3-((R)-8-(1-ethyl-7-methyl-4-oxo-1,4-dihydroquinolin-3-ylsulfonyl)-1-oxa-8-azaspiro[4.5]decan-3-ylamino)-2-hydroxypropoxy)-N-methylbenzenesulfonamide] | 7.30
NS(=O)(=O)c1cccc(OC[C@@H](O)CN[C@H]2COC3(CCN(S(=O)(=O)c4cnc5cc[nH]c5c4)CC3)C2)c1 [Compound 532, 3-((S)-3-((R)-8-(1H-pyrrolo[3,2-b]pyridin-6-ylsulfonyl)-1-oxa-8-azaspiro[4.5]decan-3-ylamino)-2-hydroxypropoxy)benzenesulfonamide] | 7.90
CNS(=O)(=O)c1cccc(OC[C@@H](O)CN[C@H]2COC3(CCN(S(=O)(=O)c4cnc5ccc(C)cc5c4O)CC3)C2)c1 [Compound 533, 3-((S)-2-hydroxy-3-((R)-8-(4-hydroxy-6-methylquinolin-3-ylsulfonyl)-1-oxa-8-azaspiro[4.5]decan-3-ylamino)propoxy)-N-methylbenzenesulfonamide] | 7.61
CNS(=O)(=O)c1cccc(OC[C@@H](O)CN[C@H]2COC3(CCN(S(=O)(=O)c4cnc5ccc(F)cc5c4O)CC3)C2)c1 [Compound 534, 3-((S)-3-((R)-8-(6-fluoro-4-hydroxyquinolin-3-ylsulfonyl)-1-oxa-8-azaspiro[4.5]decan-3-ylamino)-2-hydroxypropoxy)-N-methylbenzenesulfonamide] | 7.68
CCn1cc(S(=O)(=O)N2CCC3(CC2)C[C@@H](NC[C@H](O)COc2cccc(S(=O)(=O)NC)c2)CO3)c(=O)c2cc(C)ccc21 [Compound 535, 3-((S)-3-((R)-8-(1-ethyl-6-methyl-4-oxo-1,4-dihydroquinolin-3-ylsulfonyl)-1-oxa-8-azaspiro[4.5]decan-3-ylamino)-2-hydroxypropoxy)-N-methylbenzenesulfonamide] | 7.36
CCn1cc(S(=O)(=O)N2CCC3(CC2)C[C@@H](NC[C@H](O)COc2cccc(S(=O)(=O)NC)c2)CO3)c(=O)c2cc(F)ccc21 [Compound 536, 3-((S)-3-((R)-8-(1-ethyl-6-fluoro-4-oxo-1,4-dihydroquinolin-3-ylsulfonyl)-1-oxa-8-azaspiro[4.5]decan-3-ylamino)-2-hydroxypropoxy)-N-methylbenzenesulfonamide] | 6.78
CNS(=O)(=O)c1cccc(OC[C@@H](O)CN[C@H]2COC3(CCN(S(=O)(=O)c4ccc5nccn5c4)CC3)C2)c1 [Compound 537, 3-((S)-2-hydroxy-3-((R)-8-(imidazo[1,2-a]pyridin-6-ylsulfonyl)-1-oxa-8-azaspiro[4.5]decan-3-ylamino)propoxy)-N-methylbenzenesulfonamide] | 7.00
CNS(=O)(=O)c1cccc(OC[C@@H](O)CN[C@H]2COC3(CCN(S(=O)(=O)c4cnc5cc(C)ccc5c4O)CC3)C2)c1 [Compound 538, 3-((S)-2-hydroxy-3-((R)-8-(4-hydroxy-7-methylquinolin-3-ylsulfonyl)-1-oxa-8-azaspiro[4.5]decan-3-ylamino)propoxy)-N-methylbenzenesulfonamide] | 7.27
CNS(=O)(=O)c1cccc(OC[C@@H](O)CN[C@H]2COC3(CCN(S(=O)(=O)c4cnc5cc(F)ccc5c4O)CC3)C2)c1 [Compound 539, 3-((S)-3-((R)-8-(7-fluoro-4-hydroxyquinolin-3-ylsulfonyl)-1-oxa-8-azaspiro[4.5]decan-3-ylamino)-2-hydroxypropoxy)-N-methylbenzenesulfonamide] | 7.59
CNS(=O)(=O)c1cccc(OC[C@@H](O)CN[C@H]2COC3(CCN(S(=O)(=O)c4cnc5c(F)cccc5c4O)CC3)C2)c1 [Compound 540, 3-((S)-3-((R)-8-(8-fluoro-4-hydroxyquinolin-3-ylsulfonyl)-1-oxa-8-azaspiro[4.5]decan-3-ylamino)-2-hydroxypropoxy)-N-methylbenzenesulfonamide] | 7.49
CNS(=O)(=O)c1cccc(OC[C@@H](O)CN[C@H]2COC3(CCN(S(=O)(=O)c4cnc5ccccc5c4O)CC3)C2)c1 [Compound 541, 3-((S)-2-hydroxy-3-((R)-8-(4-hydroxyquinolin-3-ylsulfonyl)-1-oxa-8-azaspiro[4.5]decan-3-ylamino)propoxy)-N-methylbenzenesulfonamide] | 7.87
Cc1ccc2c(O)c(S(=O)(=O)N3CCC4(CC3)C[C@@H](NC[C@H](O)COc3cccc(S(N)(=O)=O)c3)CO4)cnc2c1 [Compound 542, 3-((S)-2-hydroxy-3-((R)-8-(4-hydroxy-7-methylquinolin-3-ylsulfonyl)-1-oxa-8-azaspiro[4.5]decan-3-ylamino)propoxy)benzenesulfonamide] | 7.81
CCn1cc(S(=O)(=O)N2CCC3(CC2)C[C@@H](NC[C@H](O)COc2cccc(S(N)(=O)=O)c2)CO3)c(=O)c2ccc(F)cc21 [Compound 543, 3-((S)-3-((R)-8-(1-ethyl-7-fluoro-4-oxo-1,4-dihydroquinolin-3-ylsulfonyl)-1-oxa-8-azaspiro[4.5]decan-3-ylamino)-2-hydroxypropoxy)benzenesulfonamide] | 7.18
CNS(=O)(=O)c1cccc(OC[C@@H](O)CN[C@H]2COC3(CCN(S(=O)(=O)c4cn(CC(=O)O)c5ccccc5c4=O)CC3)C2)c1 [Compound 544, 2-(3-((R)-3-((S)-2-hydroxy-3-(3-(N-methylsulfamoyl)phenoxy)propylamino)-1-oxa-8-azaspiro[4.5]decan-8-ylsulfonyl)-4-oxoquinolin-1(4H)-yl)acetic acid] | 7.49
CCn1cc(S(=O)(=O)N2CCC3(CC2)C[C@@H](NC[C@H](O)COc2cccc(S(=O)(=O)NC)c2)CO3)c(=O)c2cccc(C)c21 [Compound 545, 3-((S)-3-((R)-8-(1-ethyl-8-methyl-4-oxo-1,4-dihydroquinolin-3-ylsulfonyl)-1-oxa-8-azaspiro[4.5]decan-3-ylamino)-2-hydroxypropoxy)-N-methylbenzenesulfonamide] | 6.92
CCn1cc(S(=O)(=O)N2CCC3(CC2)C[C@@H](NC[C@H](O)COc2cccc(S(=O)(=O)NC)c2)CO3)c(=O)c2ccc(F)cc21 [Compound 546, 3-((S)-3-((R)-8-(1-ethyl-7-fluoro-4-oxo-1,4-dihydroquinolin-3-ylsulfonyl)-1-oxa-8-azaspiro[4.5]decan-3-ylamino)-2-hydroxypropoxy)-N-methylbenzenesulfonamide] | 7.28
CNS(=O)(=O)c1cccc(OC[C@@H](O)CN[C@H]2COC3(CCN(S(=O)(=O)c4cc(C)cc5c(O)ccnc45)CC3)C2)c1 [Compound 547, 3-((S)-2-hydroxy-3-((R)-8-(4-hydroxy-6-methylquinolin-8-ylsulfonyl)-1-oxa-8-azaspiro[4.5]decan-3-ylamino)propoxy)-N-methylbenzenesulfonamide] | 6.75
NS(=O)(=O)c1cccc(OC[C@@H](O)CN[C@H]2COC3(CCN(S(=O)(=O)c4cnc5ccccc5c4O)CC3)C2)c1 [Compound 548, 3-((S)-2-hydroxy-3-((R)-8-(4-hydroxyquinolin-3-ylsulfonyl)-1-oxa-8-azaspiro[4.5]decan-3-ylamino)propoxy)benzenesulfonamide] | 7.84
Cn1cc(S(=O)(=O)N2CCC3(CC2)C[C@@H](NC[C@H](O)COc2cccc(S(N)(=O)=O)c2)CO3)c(=O)c2ccccc21 [Compound 549, 3-((S)-2-hydroxy-3-((R)-8-(1-methyl-4-oxo-1,4-dihydroquinolin-3-ylsulfonyl)-1-oxa-8-azaspiro[4.5]decan-3-ylamino)propoxy)benzenesulfonamide] | 6.85
CCn1cc(S(=O)(=O)N2CCC3(CC2)C[C@@H](NC[C@H](O)COc2cccc(S(N)(=O)=O)c2)CO3)c(=O)c2ccccc21 [Compound 550, 3-((S)-3-((R)-8-(1-ethyl-4-oxo-1,4-dihydroquinolin-3-ylsulfonyl)-1-oxa-8-azaspiro[4.5]decan-3-ylamino)-2-hydroxypropoxy)benzenesulfonamide] | 7.39
CCCn1cc(S(=O)(=O)N2CCC3(CC2)C[C@@H](NC[C@H](O)COc2cccc(S(N)(=O)=O)c2)CO3)c(=O)c2ccccc21 [Compound 551, 3-((S)-2-hydroxy-3-((R)-8-(4-oxo-1-propyl-1,4-dihydroquinolin-3-ylsulfonyl)-1-oxa-8-azaspiro[4.5]decan-3-ylamino)propoxy)benzenesulfonamide] | 7.13
